In PMC12406721, “Chronic integrated stress response causes dysregulated cholesterol synthesis in white matter disease” (JCI Insight, 2025):

Key:
[1] = biological target: T1, eIF2B (Mus musculus, UniProt Q61749+Q99LD9); assay: 2BAct dose response in N208Y cells (read-out only in supplement); assay type: cell-based; conditions: activator, cell line not restated, read-out not told in main text
T1 construct: gene Eif2b2; endogenous complex in MIN-6 cells or their lysate; decamer α2β2δ2(γε)2; alpha subunit strongly depleted in N208Y cells (mostly octamer β2δ2γ2ε2); with Translation initiation factor eIF2B subunit alpha; Translation initiation factor eIF2B subunit gamma; Translation initiation factor eIF2B subunit epsilon
T1 sequence (Q99LD9 whole entry): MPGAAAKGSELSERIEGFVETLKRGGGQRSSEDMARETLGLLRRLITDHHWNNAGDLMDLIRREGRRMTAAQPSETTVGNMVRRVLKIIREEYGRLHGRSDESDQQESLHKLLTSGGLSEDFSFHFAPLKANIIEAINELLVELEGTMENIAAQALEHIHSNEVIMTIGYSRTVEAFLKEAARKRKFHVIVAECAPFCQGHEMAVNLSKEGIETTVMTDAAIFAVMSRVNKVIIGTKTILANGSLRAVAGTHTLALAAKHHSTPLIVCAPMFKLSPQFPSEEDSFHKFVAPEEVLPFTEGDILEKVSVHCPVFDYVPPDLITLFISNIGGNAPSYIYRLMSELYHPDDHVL
T1 sequence (Q61749 2-524): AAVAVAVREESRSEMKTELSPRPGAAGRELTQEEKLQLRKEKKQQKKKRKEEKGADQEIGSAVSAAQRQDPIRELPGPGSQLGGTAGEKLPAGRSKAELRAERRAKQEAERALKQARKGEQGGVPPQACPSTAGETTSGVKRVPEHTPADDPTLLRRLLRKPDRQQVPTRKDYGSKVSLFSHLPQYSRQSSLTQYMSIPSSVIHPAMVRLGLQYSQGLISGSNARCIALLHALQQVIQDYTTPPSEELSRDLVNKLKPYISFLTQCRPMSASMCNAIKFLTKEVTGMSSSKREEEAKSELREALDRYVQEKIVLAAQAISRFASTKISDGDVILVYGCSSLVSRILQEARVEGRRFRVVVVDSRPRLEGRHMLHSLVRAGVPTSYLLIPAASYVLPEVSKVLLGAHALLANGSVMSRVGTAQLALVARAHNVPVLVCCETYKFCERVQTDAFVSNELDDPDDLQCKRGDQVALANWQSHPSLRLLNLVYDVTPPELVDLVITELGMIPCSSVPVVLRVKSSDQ
T1 sequence (Q99LC8 whole entry N208Y partner): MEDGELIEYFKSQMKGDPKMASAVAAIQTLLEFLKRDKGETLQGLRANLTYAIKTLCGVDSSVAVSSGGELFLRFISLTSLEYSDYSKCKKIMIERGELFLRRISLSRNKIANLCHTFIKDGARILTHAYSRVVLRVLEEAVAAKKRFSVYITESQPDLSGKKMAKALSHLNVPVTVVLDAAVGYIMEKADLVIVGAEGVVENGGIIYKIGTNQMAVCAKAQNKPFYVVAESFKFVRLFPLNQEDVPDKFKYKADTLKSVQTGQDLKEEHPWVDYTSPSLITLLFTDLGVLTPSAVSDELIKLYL
T1 sequence (Q8CHW4 whole entry partner): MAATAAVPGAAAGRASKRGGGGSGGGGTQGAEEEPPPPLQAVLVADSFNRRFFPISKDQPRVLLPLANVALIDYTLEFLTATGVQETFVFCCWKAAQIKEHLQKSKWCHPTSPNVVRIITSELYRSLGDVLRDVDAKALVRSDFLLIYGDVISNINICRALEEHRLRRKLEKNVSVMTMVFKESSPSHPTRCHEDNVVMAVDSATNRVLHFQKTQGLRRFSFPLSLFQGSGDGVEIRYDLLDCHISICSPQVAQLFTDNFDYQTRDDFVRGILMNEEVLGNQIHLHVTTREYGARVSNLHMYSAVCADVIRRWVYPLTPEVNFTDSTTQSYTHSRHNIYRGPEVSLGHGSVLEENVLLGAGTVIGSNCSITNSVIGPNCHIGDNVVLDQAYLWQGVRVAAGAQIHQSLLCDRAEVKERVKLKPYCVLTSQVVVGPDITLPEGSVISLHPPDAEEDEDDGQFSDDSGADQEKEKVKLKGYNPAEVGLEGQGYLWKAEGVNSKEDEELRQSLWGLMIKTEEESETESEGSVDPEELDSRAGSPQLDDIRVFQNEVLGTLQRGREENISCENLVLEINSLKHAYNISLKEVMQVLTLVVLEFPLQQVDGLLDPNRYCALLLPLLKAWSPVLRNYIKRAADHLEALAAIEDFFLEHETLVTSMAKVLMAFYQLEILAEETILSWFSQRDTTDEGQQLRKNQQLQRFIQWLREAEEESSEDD

[2] = biological target: T2, eIF2B-α (Homo sapiens, UniProt Q14232); assay: NanoDSF thermal unfolding; assay type: binding; conditions: stabilises; concentration not told in main text
T2 construct: gene EIF2B1; purified recombinant alpha subunit, homodimer
T2 sequence (Q14232 1-305): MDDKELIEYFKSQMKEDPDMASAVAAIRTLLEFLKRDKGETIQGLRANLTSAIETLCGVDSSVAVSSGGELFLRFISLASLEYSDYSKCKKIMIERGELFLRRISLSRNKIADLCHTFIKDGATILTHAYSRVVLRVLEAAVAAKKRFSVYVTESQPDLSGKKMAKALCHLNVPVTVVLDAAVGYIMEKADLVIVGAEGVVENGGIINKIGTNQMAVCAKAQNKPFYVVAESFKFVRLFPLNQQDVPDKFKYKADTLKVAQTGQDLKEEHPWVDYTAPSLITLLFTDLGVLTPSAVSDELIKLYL

O=C(COc1ccc(Cl)c(F)c1)NC12CC(NC(=O)c3cnc(C(F)F)cn3)(C1)C2 [2BAct]
EC50 [1]: 27.8 nM

O=P(O)(O)OC[C@H]1OC(O)(CO)[C@@H](O)[C@@H]1O (some centres unmarked) [fructose-6-phosphate]
Tm [2]: addition of F6P further increased the stability of WT eIF2B-α
